Our source for the IC50 values is US20240124503A1, “HETEROAROMATIC PHOSPHONIUM SALTS AND THEIR USE TREATING CANCER” (FLORATEK PHARMA S.A., priority 2021, published 2024).

Some results are limits rather than exact numbers.

What all share (assay type): cell-based
One experiment deals with MDA-MB-231. As to the kind of experiment: Cell viability assay, MDA-MB-231. The settings on record: Homo sapiens; breast carcinoma cell line MDA-MB-231. How it is done: (§1) Antitumor activity of the compounds and doxorubicin as a positive control was assessed by using the CellTiter-Blue Cell Viability Assay (Promega, #G8082) or CellTiter-Glow® Luminescent Cell Viability assay (Promega #G7572) according to the manufacturer's instructions. The compounds were tested at 5 or 6 concentrations in half-log increments (highest concentration 30 μM or 100 μM) in duplicate or triplicate well conditions.
(§2) Tumor cells were grown at 37° C. in a humidified atmosphere with 5% CO2 in RPMI 1640 or DMEM medium, supplemented with 10% (v/v) fetal calf serum and 50 μg/ml gentamicin for up to 20 passages, and were passaged once or twice weekly. Cells were harvested using TrypLE or PBS buffer containing 1 mM EDTA, and the percentage of viable cells was determined using a CASY Model TI cell counter (OMNI Life Science). Cells were harvested from exponential phase cultures, counted and plated in 96 well flat-bottom microtiter plates at a cell density depending on the cell line's growth rate (4,000-20,000 cells/well depending on the cell line's growth rate, up to 60,000 for hematological cancer cell lines) in RPMI 1640 or DMEM medium supplemented with 10% (v/v) fetal calf serum and 50 μg/ml gentamicin (140 μl/well). […] Viability of cells was quantified by the CellTiter-Blue® cell viability assay (Promega G8081) or CellTiter-Glow® Luminescent Cell Viability assay (Promega #G7572). […]

The subject of the next experiment is U-118. Description: Cell viability assay, U-118. The settings on record: brain carcinoma cell line U-118. How it is done:
as §1, §2

The test system of another experiment is colon PDX. As to the kind of experiment: Cell viability, colon PDX (panel statement). The settings on record: text summary of Table 7; read-out: IC50, growth of colon PDX. As for the experimental part: PDX-derived cell cultures were obtained from tumors explanted from mice and isolated by mechanical and enzymatic dissociation. […] Cells were harvested and seeded in 96-wells plates at a density of 1.25 to 5×10^3 cells/well for cytotoxicity assays. Cells were incubated 48 h at 37° C. prior to addition of test molecules and vehicle (DMSO, 0.1%) at desired final concentrations. Cell viability was assessed before drugs' addition (To) and 5 days after test molecules addition by measuring ATP cell content using CellTiter-Glo® Luminescent Cell Viability Assay (Promega) according to the manufacturer's instructions. Luciferase activity was measured on a luminometer (PerkinElmer® EnVision™). Each concentration of compounds was tested in triplicate.
Viability was calculated as a percentage of ATP value compared to vehicle treated controls.
For PDX primary cell cultures, the tumour tissue was washed with PBS containing antibiotic-antimycotic and non-tumour tissue and necrotic tumour tissues were separated. The tumour tissue was transferred to a new dish and cut into 1˜2 mm^3 fragments, resuspended in RPMI-1640 medium and centrifuged at 1,200 rpm for 6 min at room temperature. The pelleted material was resuspended with 15 mL of Tumour Cell Digestion Solution and incubated at 37° C. for 1 hour with agitation. […]

The term IC50 denotes the point on the concentration scale where inhibition reaches its midpoint. As to `COc1c(O)ccc2c(=O)c(O)c(-c3ccc(CCCC[P+](c4ccccc4)(c4ccccc4)c4ccccc4)cc3)oc12` [SND190, (4-(4-(3,7-Dihydroxy-8-methoxy-4-oxo-4H1-chromen-2-yl)phenyl)butyl)triphenylphosphonium bromide], the values for the IC50 in the experiment with MDA-MB-231, in the experiment with U-118 and in the experiment with colon PDX were 3.5 µM, 9.4 µM and less than 20 µM, respectively.
